The supplement of paper PMC10307832

Experiments:
Assay in all cases: relative viability (nuclei count vs DMSO), 5 days (fraction); higher = more cells survive
Ibrutinib + Phenformin = compound: C=CC(=O)N1CCC[C@@H](n2nc(-c3ccc(Oc4ccccc4)cc3)c3c(N)ncnc32)C1 [Ibrutinib] + N=C(N)NC(=N)NCCc1ccccc1 [Phenformin] (partner 250 µM)
Outline: (§1)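 A single step with final 0.05% Triton X-100, 1% formaldehyde and 1 ug/ml Hoechst fixed the cells and stained nuclei 5 days after treatment. Lung cancer cell lines in 1536-well plates had been treated by pin tool the day after seeding with one drug alone or a fixed anchor-drug dose plus five library-drug doses (not always all listed) in √10 steps, and nuclei were counted on 4× images. Relative viability is the ratio of nuclei in treated wells to nuclei in vehicle wells, taken as the median of duplicate plates.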

Ibrutinib + Olaparib = compound: C=CC(=O)N1CCC[C@@H](n2nc(-c3ccc(Oc4ccccc4)cc3)c3c(N)ncnc32)C1 [Ibrutinib] + O=C(c1cc(Cc2n[nH]c(=O)c3ccccc23)ccc1F)N1CCN(C(=O)C2CC2)CC1 [Olaparib] (partner 8 µM)
Outline: as §1

Ibrutinib + Crizotinib = compound: C=CC(=O)N1CCC[C@@H](n2nc(-c3ccc(Oc4ccccc4)cc3)c3c(N)ncnc32)C1 [Ibrutinib] + C[C@@H](Oc1cc(-c2cnn(C3CCNCC3)c2)cnc1N)c1c(Cl)ccc(F)c1Cl [Crizotinib] (partner 1 µM)
Outline: as §1

PAC-1 + Bortezomib = compound: C=CCc1cccc(/C=N/NC(=O)CN2CCN(Cc3ccccc3)CC2)c1O [PAC-1] + CC(C)C[C@H](NC(=O)[C@H](Cc1ccccc1)NC(=O)c1cnccn1)B(O)O [Bortezomib] (partner 0.002 µM)
Outline: as §1

| Cell Line | relative viability (Ibrutinib + Phenformin; first compound 0.005 µM) | relative viability (Ibrutinib + Phenformin; first compound 0.01581 µM) | relative viability (Ibrutinib + Phenformin; first compound 0.05 µM) | relative viability (Ibrutinib + Phenformin; first compound 0.1581 µM) | relative viability (Ibrutinib + Phenformin; first compound 0.5 µM) | relative viability (Ibrutinib + Olaparib; first compound 0.005 µM) | relative viability (Ibrutinib + Olaparib; first compound 0.01581 µM) | relative viability (Ibrutinib + Olaparib; first compound 0.1581 µM) | relative viability (Ibrutinib + Olaparib; first compound 0.5 µM) | relative viability (Ibrutinib + Crizotinib; first compound 0.005 µM) | relative viability (Ibrutinib + Crizotinib; first compound 0.01581 µM) | relative viability (Ibrutinib + Crizotinib; first compound 0.05 µM) | relative viability (Ibrutinib + Crizotinib; first compound 0.1581 µM) | relative viability (Ibrutinib + Crizotinib; first compound 0.5 µM) | relative viability (PAC-1 + Bortezomib; first compound 0.02 µM) | relative viability (PAC-1 + Bortezomib; first compound 0.06325 µM) | relative viability (PAC-1 + Bortezomib; first compound 0.2 µM) | relative viability (PAC-1 + Bortezomib; first compound 2 µM) | relative viability (Ibrutinib + Olaparib; first compound 0.05 µM) |
| --- | --- | --- | --- | --- | --- | --- | --- | --- | --- | --- | --- | --- | --- | --- | --- | --- | --- | --- | --- |
| HCC-44 | 0.138 | 0.182 | 0.148 | 0.11 | 0.232 | 1.06 | 0.965 | 1 | 1.07 | 0.813 | 0.782 | 0.801 | 0.866 | 0.743 | 0.894 | 0.885 | 0.947 | 0.934 |  |
| NCI-H1666 | 0.597 | 0.59 | 0.547 | 0.561 | 0.571 | 0.844 | 0.672 | 0.694 | 0.703 | 1.01 | 0.864 | 0.904 | 0.932 | 0.697 | 0.849 | 0.809 | 0.828 | 0.912 | 0.772 |
| NCI-H650 | 0.457 | 0.456 | 0.372 | 0.492 | 0.493 | 0.423 | 0.432 | 0.506 | 0.459 |  | 0.656 |  | 0.863 | 0.805 | 0.755 | 0.871 | 0.736 | 0.735 | 0.385 |
| EPLC-272H | 0.314 | 0.286 | 0.283 | 0.274 | 0.207 | 0.708 | 0.597 | 0.79 | 0.455 |  | 0.806 | 0.809 | 1.06 | 0.522 |  | 0.895 | 1.02 | 1 | 0.49 |
| LXF-289 | 0.537 | 0.472 | 0.515 | 0.465 | 0.497 | 1.16 | 0.994 | 1.03 | 1.02 | 0.948 | 0.804 | 0.807 | 0.784 | 0.791 | 0.983 | 1.01 | 1.01 | 0.995 | 1.01 |
| LOU-NH91 | 0.59 | 0.642 | 0.557 | 0.711 | 0.45 | 0.836 | 0.751 | 0.931 | 0.692 | 0.697 | 0.557 | 0.666 | 0.738 | 0.526 | 0.452 | 0.475 | 0.469 | 0.526 | 0.798 |
| LCLC-103H | 0.334 | 0.282 | 0.3 | 0.369 | 0.275 | 0.769 | 0.744 | 0.739 | 0.758 | 1.06 | 1.03 | 1.02 | 1.06 | 1.04 | 1.17 | 1.1 | 1.1 | 1.18 |  |
| NCI-H460 | 0.636 | 0.46 | 0.463 | 0.572 | 0.592 | 0.405 | 0.373 | 0.432 | 0.441 | 1.11 | 0.614 | 1.04 |  | 1.12 | 1.3 | 1.02 | 0.859 | 1.14 | 0.441 |
| NCI-H596 |  | 0.635 | 0.704 | 0.607 | 0.635 | 1.09 | 0.635 | 0.668 | 0.723 | 0.974 | 0.955 | 0.903 | 0.803 | 0.747 | 0.895 | 1.09 | 1.56 | 1.04 | 0.68 |
| NCI-H322M | 0.715 | 0.675 | 0.675 | 0.676 | 0.569 | 0.766 | 0.768 | 0.725 | 0.659 | 0.964 | 0.848 | 0.887 | 1.03 | 0.608 | 1.21 | 1.31 | 1.28 | 1.07 | 0.775 |
| H3255 | 0.364 | 0.344 | 0.382 | 0.375 | 0.233 | 0.533 | 0.53 | 0.623 | 0.407 | 0.873 | 0.81 | 0.729 | 0.874 | 0.429 | 0.876 | 0.778 | 0.861 | 0.729 | 0.516 |
| COR-L23 | 0.491 | 0.408 | 0.454 | 0.472 | 0.445 | 0.398 | 0.31 | 0.385 | 0.327 | 0.707 | 0.641 | 0.693 | 0.644 | 0.653 | 1.1 | 0.93 | 0.913 | 0.966 | 0.363 |
| NCI-H2126 | 0.485 | 0.474 | 0.495 | 0.551 | 0.52 | 0.879 | 0.899 | 0.905 | 0.747 |  | 1 | 0.994 | 1.06 | 0.936 | 1.08 | 1.08 | 1.21 | 1.18 | 0.88 |
| NCI-H1993 | 0.487 | 0.575 | 0.534 | 0.509 | 0.624 | 0.849 | 0.939 | 1.15 | 0.836 | 0.843 | 0.744 | 0.704 |  | 0.713 | 0.975 | 1.08 | 1.15 | 1.09 | 1.36 |
| NCI-H1915 | 0.401 | 0.351 | 0.367 | 0.421 | 0.373 | 0.283 | 0.256 | 0.281 | 0.241 |  | 0.858 | 0.92 | 0.921 | 0.897 | 0.995 | 0.964 | 0.907 | 1.02 | 0.257 |
| NCI-H727 |  | 0.612 | 0.546 |  | 0.401 | 0.736 | 0.817 | 0.792 | 0.688 | 0.74 | 0.616 | 0.71 | 0.868 | 0.617 | 0.905 | 0.925 | 0.944 | 0.818 | 0.659 |
